These results are taken from patent US11357817B2, “Immunoproteasome inhibitor” (The Regents of the University of California, priority 2017, dated 2022).

One test deals with P. falciparum Dd2. Nature of the test: P. falciparum Dd2 asexual blood stage SYBR Green I compound sensitivity assay. Format: cell-based, Plasmodium falciparum. As to conditions: for Selectivity Index: P. falciparum activity versus HepG2 activity; for IC50: Plasmodium falciparum, DD2, 72 h, asexual blood stage, 72 hour SYBR green assay. As to the method: P. falciparum Dd2 strain parasites were cultured under standard conditions (31), using RPMI media supplemented with 0.05 mg/ml gentamycin, 0.014 mg/mL hypoxanthine (prepared fresh), 38.4 mM HEPES, 0.2% Sodium Bicarbonate, 3.4 mM Sodium Hydroxide, 0.05% O+ Human Serum (Denatured at […] for 40 min and From Interstate Blood Bank, Memphis, Tenn.) and 0.0025% Albumax). Human O+ whole blood was obtained from TSRI blood bank (La Jolla, Calif.). Leukocyte-free erythrocytes are stored at 50% hematocrit in RPMI-1640 screening media (as above, but without O+ human serum and with 2× albumax concentration) at 4° C. for one to three weeks before experimental use. Cultures were monitored every one to two days via Giemsa-stained thin smears.
(§1) Compound susceptibility was measured using the malaria SYBR Green I-based fluorescence assay (32). Asynchronous P. falciparum parasites (Dd2 strain) were cultured in standard conditions before being plated for the assays. Each compound was tested over 72 hours in technical duplicates on a twelve-point concentration curve prepared by three-fold dilution from 6.7 μM to 0.11 nM. At least three independent experiments were carried out for IC50 determination. Artemisinin and chloroquine were used as controls. IC50 values were obtained using normalized fluorescence intensity from SYBR green I and analyzed via non-linear variable slope four-parameter regression curve-fitting model in Prism 6 (GraphPad Software Inc).

A further test concerns HepG2 cells. The experiment in a line: HepG2 cytotoxicity assay. Format: cell-based. The note with it: Homo sapiens. As to the method: The liver-stage and HepG2 toxicity assays were performed as previously reported (35). Briefly, HepG2-A16-CD81EGFP, human hepatocarcinoma HepG2 cells stably transformed to express the tetraspanin CD81 receptor (36, 37) and thus susceptible to P. berghei infection, were cultured at 37° C. in 5% CO2 in DMEM (Life Technologies, Calif.) supplemented with 10% FBS, 0.29 mg/ml glutamine, 100 unit penicillin and 100 μg/ml streptomycin. For both the P. berghei-luciferase and HepG2 cytotoxicity assays, 3×10^3 of the HepG2-A16-CD81EGFP cells in 5 μl of assay medium (DMEM without Phenol Red (Life Technologies, Calif.), 5% FBS, and 5× Pen Strep Glutamine (Life Technologies, Calif.)) at concentration 6×10^5 cells/ml were seeded in 1536-well plates (Greiner BioOne white solid bottom custom GNF mold) 20-26 hours prior to the actual infection. 18 hours prior to infection, 50 nl of compound in DMSO (0.5% final DMSO concentration per well) were transferred with Acoustic Transfer System (ATS) (Biosero) into the assay plates. Atovaquone (12-point serial dilution starting at 10 μM) and Puromycin (12-point serial dilution starting at 10 μM) were used as positive controls for Pb. liver stage assay and HepG2 cytotoxicity respectively. 0.5% DMSO was used as negative control for the both assays.
An. stephensi mosquitoes, infected with P. berghei-luciferase, were provided by the New York University Insectary. P. berghei-luciferase sporozoites were freshly dissected from the infected A. stephensi mosquito salivary glands, filtered twice through a 20 μm nylon net filter using Steriflip Vacuum-Driven Filtration System (Millipore), counted in a hemocytometer, and then adjusted to final concentration 200 sporozoites per μl in the assay media. […] The HepG2-A16-CD81EGFP cell designated for toxicity studies were left uninfected, with 5 ul of additional assay media added to each well to maintain equal concentrations of compounds with P. berghei-luciferase infected plates. After incubation at 37° C. for 48 hours the exoerythrocytic growth and HepG2-A16-CD81EGFP cell viability were quantified by a bioluminescence measurement.
The HepG2 cytotoxicity was assessed by removing the media through an inverted spin of the plates at 150 g for 30 s and addition of 2 μL of CellTiterGlo reagent (Promega diluted 1:2 with deionized water) per well using the MicroFlo liquid handler (BioTek). Immediately after addition of the luminescence reagent, the plates were vortexed for 10 s and read with an EnVision Multilabel reader (PerkinElmer). IC50 values were obtained as above.

For another test, the system named is Dd2 parasites. Nature of the test: Artemisinin synergy, 72 hour SYBR green assay with co-treatment. Format: cell-based, Plasmodium falciparum. As to conditions: Plasmodium falciparum, DD2; wild-type parasites treated with ART alone. As to the method:
as §1

The next test has as its target Pf20S (Plasmodium falciparum, UniProt A0A5K1K7U1+Q8IJT1). The experiment in a line: Calculation of inhibition constants (inactivation kinetics), Pf20S. Format: biochemical. As to conditions: Pf20S. As to the method:
(§2) The rate of AMC release was calculated in the presence of serial dilution of each inhibitor. The rate of product formation were calculated at 30 min intervals for 4 hours, and normalized to activity DMSO control to calculate inactivation curves. Kobs values for each inhibitor concentration were calculated from inactivation curves, and inhibition constants KI and kinact were calculated by non-linear regression of Kobs and inhibitor concentration using GraphPad Prism 6 software.

In a further test the target is T1, c20S (Homo sapiens, UniProt P20618+P28074).
T1 construct: purchased Boston Biochem
The experiment in a line: Calculation of inhibition constants (inactivation kinetics), c20S. Format: biochemical. As to the method: as §2

A word on the IC50: it is the point on the concentration scale where inhibition reaches its midpoint.

Chain of Pf20S (A0A5K1K7U1 entry or part of it): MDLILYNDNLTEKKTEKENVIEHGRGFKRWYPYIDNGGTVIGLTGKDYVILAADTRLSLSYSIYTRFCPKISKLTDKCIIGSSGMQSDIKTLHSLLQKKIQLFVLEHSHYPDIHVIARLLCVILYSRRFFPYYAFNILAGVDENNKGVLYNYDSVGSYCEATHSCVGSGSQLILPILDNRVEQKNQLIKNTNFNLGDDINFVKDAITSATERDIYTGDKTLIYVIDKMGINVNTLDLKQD
Chain of Pf20S (Q8IJT1 entry or part of it): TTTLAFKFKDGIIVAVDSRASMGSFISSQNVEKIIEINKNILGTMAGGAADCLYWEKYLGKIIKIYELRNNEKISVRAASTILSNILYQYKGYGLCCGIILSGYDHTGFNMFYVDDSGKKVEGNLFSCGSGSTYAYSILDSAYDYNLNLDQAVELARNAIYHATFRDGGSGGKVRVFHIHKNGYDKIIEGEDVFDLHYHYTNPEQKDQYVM

As to `CCCCCC(=O)N[C@@H](Cc1ccc(N)cc1)C(=O)N[C@@H](CCCC)C(=O)N[C@@H](CC(C)C)C(=O)[C@@]1(C)CO1` [Analog 4, (S)-2-((S)-3-(4-aminophenyl)-2-hexanamidopropanamido)-N—((S)-4-methyl-1-((R)-2-methyloxiran-2-yl)-1-oxopentan-2-yl)hexanamide], the “Selectivity Index” value in the test with P. falciparum Dd2 is recorded as 1.06. Further, the figures for the IC50 in the test with P. falciparum Dd2 and in the test on HepG2 cells were 5.99 ± 1.08 nM and 6.32 ± 4.99 nM, respectively.

Take `CCCCCC(=O)N[C@@H](Cc1ccc(N)cc1)C(=O)N[C@@H](CCCC)C(=O)N[C@@H](Cc1ccccc1)C(=O)[C@@]1(C)CO1` [Analog 9, (S)-2-((S)-3-(4-aminophenyl)-2-hexanamidopropanamido)-N—((S)-1-((R)-2-methyloxiran-2-yl)-1-oxo-3-phenylpropan-2-yl)hexanamide]: the “Selectivity Index” value in the test on P. falciparum Dd2 was 41.69. Moreover, the IC50 stood at 81.8 ± 14 nM with P. falciparum Dd2 and 3410 ± 2310 nM with HepG2 cells.

With `C[C@@H]1CC[C@H]2[C@@H](C)C(=O)O[C@@H]3O[C@@]4(C)CC[C@@H]1[C@]32OO4` [Artemisinin, artemisinin], the IC50 with Dd2 parasites fell in the range of 19.7 to 23.3 nM.

Turning to `CCCCCC(=O)N[C@@H](Cc1c[nH]c2ccccc12)C(=O)N[C@@H](CCCC)C(=O)N[C@@H](Cc1ccccc1)C(=O)[C@@]1(C)CO1` [Analog 11, (S)-2-((S)-2-hexanamido-3-(1H-indol-3-yl)propanamido)-N—((S)-1-((R)-2-methyloxiran-2-yl)-1-oxo-3-phenylpropan-2-yl)hexanamide], in the test on P. falciparum Dd2, the “Selectivity Index” value was determined as 0.66 and the IC50 stood at 9.77 ± 1.31 nM. In the test on HepG2 cells, this molecule showed an IC50 of 6.41 ± 2.26 nM.

In the case of `CCCCCC(=O)N[C@H](C(=O)N[C@@H](CCCC)C(=O)N[C@@H](CC(C)C)C(=O)[C@@]1(C)CO1)C(C)C` [Analog 1, (S)-2-((S)-2-hexanamido-3-methylbutanamido)-N—((S)-4-methyl-1-((R)-2-methyloxiran-2-yl)-1-oxopentan-2-yl)hexanamide], the IC50 in the test with P. falciparum Dd2 was 4.11 ± 0.077 nM; with HepG2 cells it was 134 ± 86.7 nM. Further, the Ki on Pf20S was 2290 nM; on c20S (c20S) it was 3740 nM. In addition, the “loss in potency to c20S” value on c20S (kinact/Ki, analog 1 versus carmaphycin B) is recorded as 3 fold.

Consider `CCCCCC(=O)N[C@@H](Cc1ccncc1)C(=O)N[C@@H](CCCC)C(=O)N[C@@H](Cc1ccccc1)C(=O)[C@@]1(C)CO1` [Analog 8, (S)-2-((S)-2-hexanamido-3-(pyridin-4-yl)propanamido)-N—((S)-1-((R)-2-methyloxiran-2-yl)-1-oxo-3-phenylpropan-2-yl)hexanamide], for which, in the test with P. falciparum Dd2, the “Selectivity Index” value is on record as 0.07 and the IC50 came out at 3.87 ± 1.37 nM. Further, in the test on HepG2 cells, the IC50 is under 0.283 nM.
